Source: the NIST ThermoML archive (doi:10.1021/je060271a)
Numbers after ± are expanded uncertainties.

Conditions: 283.15 K, Liquid, Vibrating tube method

CCCCCC(=O)OCC(COC(=O)CCCCC)(COC(=O)CCCCC)COC(=O)CCCCC [pentaerythritol tetrahexanoate]
Conditions | mass density [kg/m3]
4636.7 kPa | 1006.7 ± 1.2
4649 kPa | 1006.8 ± 1.2
4658.7 kPa | 1006.9 ± 1.2
4668 kPa | 1006.9 ± 1.2
4676.2 kPa | 1006.8 ± 1.2
4685.2 kPa | 1006.8 ± 1.2
4692.6 kPa | 1006.9 ± 1.2
4700 kPa | 1006.9 ± 1.2
4708.4 kPa | 1006.8 ± 1.2
4714.4 kPa | 1006.8 ± 1.2
4721.3 kPa | 1006.9 ± 1.2
4726.5 kPa | 1006.8 ± 1.2
4731.5 kPa | 1006.9 ± 1.2
4736.6 kPa | 1006.9 ± 1.2
4742.6 kPa | 1006.9 ± 1.2
4748 kPa | 1006.9 ± 1.2
4753 kPa | 1006.9 ± 1.2
4759.1 kPa | 1006.9 ± 1.2
4776 kPa | 1006.9 ± 1.2
4786.1 kPa | 1007 ± 1.2
4792.3 kPa | 1006.9 ± 1.2
4802.7 kPa | 1006.8 ± 1.2
4808.2 kPa | 1006.8 ± 1.2
4814.3 kPa | 1006.9 ± 1.2
4819.8 kPa | 1006.9 ± 1.2
4825.4 kPa | 1007 ± 1.2
4830.4 kPa | 1007 ± 1.2
4835.6 kPa | 1007 ± 1.2
4841.6 kPa | 1006.9 ± 1.2
4847.2 kPa | 1007 ± 1.2
4852.3 kPa | 1006.9 ± 1.2
4858.9 kPa | 1007 ± 1.2
4864.1 kPa | 1007 ± 1.2
4869.3 kPa | 1007 ± 1.2
4874.5 kPa | 1007 ± 1.2
4881.1 kPa | 1007 ± 1.2
4886.6 kPa | 1006.9 ± 1.2
4892 kPa | 1006.9 ± 1.2
4898.2 kPa | 1006.9 ± 1.2
4903.6 kPa | 1007 ± 1.2
4909.8 kPa | 1007 ± 1.2
4915.2 kPa | 1007 ± 1.2
4920.5 kPa | 1006.9 ± 1.2
4926.4 kPa | 1007.1 ± 1.2
4932 kPa | 1006.8 ± 1.2
4938.5 kPa | 1006.9 ± 1.2
4943.9 kPa | 1007 ± 1.2
4949.3 kPa | 1007 ± 1.2
4955.8 kPa | 1007 ± 1.2
4961.4 kPa | 1007 ± 1.2
4966.9 kPa | 1007 ± 1.2
4972.8 kPa | 1007 ± 1.2
4978 kPa | 1007 ± 1.2
4984.9 kPa | 1007 ± 1.2
4990.4 kPa | 1007.2 ± 1.2
4996.2 kPa | 1007 ± 1.2
5002.7 kPa | 1007.2 ± 1.2
5008.1 kPa | 1007 ± 1.2
5013.8 kPa | 1007.1 ± 1.2
5020.4 kPa | 1007 ± 1.2
5026.1 kPa | 1007 ± 1.2
5031.5 kPa | 1007.1 ± 1.2
5037.2 kPa | 1007 ± 1.2
5044.1 kPa | 1007.2 ± 1.2
5049.5 kPa | 1007.1 ± 1.2
5055.5 kPa | 1007 ± 1.2
5060.9 kPa | 1007.1 ± 1.2
5067.8 kPa | 1007 ± 1.2
5073.5 kPa | 1007.2 ± 1.2
5079.2 kPa | 1007.1 ± 1.2
5085.4 kPa | 1007.1 ± 1.2
5091.5 kPa | 1007.1 ± 1.2
5098.2 kPa | 1007 ± 1.2
5103.9 kPa | 1007.1 ± 1.2
5109.8 kPa | 1007 ± 1.2
5115.5 kPa | 1007.1 ± 1.2
5122.3 kPa | 1007 ± 1.2
5128.3 kPa | 1007.1 ± 1.2
5133.9 kPa | 1007.2 ± 1.2
5138.7 kPa | 1007.1 ± 1.2
5147 kPa | 1007.2 ± 1.3
5152.5 kPa | 1007 ± 1.2
5158.3 kPa | 1007.2 ± 1.2
5164.7 kPa | 1007.2 ± 1.2
5169.6 kPa | 1007.1 ± 1.2
5176.9 kPa | 1007 ± 1.2
5183.3 kPa | 1007.2 ± 1.2
5189 kPa | 1007.1 ± 1.2
5194.8 kPa | 1007.2 ± 1.2
5201.6 kPa | 1007.1 ± 1.2
5207.6 kPa | 1007 ± 1.2
5212.7 kPa | 1007.2 ± 1.2
5218.4 kPa | 1007.2 ± 1.2
5227 kPa | 1007.3 ± 1.2
5232.6 kPa | 1007.1 ± 1.2
5237.2 kPa | 1007.1 ± 1.2
5244.5 kPa | 1007.2 ± 1.2
5250.5 kPa | 1007.1 ± 1.2
5256.8 kPa | 1007.2 ± 1.2
5263.7 kPa | 1007.2 ± 1.2
5270.8 kPa | 1007.3 ± 1.2
5276.8 kPa | 1007.2 ± 1.2
5282.7 kPa | 1007.3 ± 1.2
5290.2 kPa | 1007.4 ± 1.2
5296 kPa | 1007.1 ± 1.2
5302.1 kPa | 1007.3 ± 1.2
5453.3 kPa | 1007.3 ± 1.2
5459.7 kPa | 1007.3 ± 1.2
5467.3 kPa | 1007.4 ± 1.2
5473.7 kPa | 1007.4 ± 1.2
5479.9 kPa | 1007.2 ± 1.2
5486.3 kPa | 1007.3 ± 1.2
5494.3 kPa | 1007.3 ± 1.2
5501 kPa | 1007.3 ± 1.2
5507.2 kPa | 1007.4 ± 1.2
5514 kPa | 1007.4 ± 1.2
5528.5 kPa | 1007.4 ± 1.2
5534.4 kPa | 1007.4 ± 1.2
5540.6 kPa | 1007.4 ± 1.2
5548.4 kPa | 1007.4 ± 1.2
5555 kPa | 1007.4 ± 1.2
5561.9 kPa | 1007.3 ± 1.2
5569.7 kPa | 1007.4 ± 1.2
5575.9 kPa | 1007.4 ± 1.2
5582.8 kPa | 1007.5 ± 1.2
5589.4 kPa | 1007.4 ± 1.2
5597.4 kPa | 1007.3 ± 1.2
5604.1 kPa | 1007.5 ± 1.2
5610.3 kPa | 1007.4 ± 1.2
5618.3 kPa | 1007.4 ± 1.2
5625 kPa | 1007.4 ± 1.2
5631.6 kPa | 1007.4 ± 1.2
5639.6 kPa | 1007.4 ± 1.2
5646.1 kPa | 1007.5 ± 1.2
5652.9 kPa | 1007.4 ± 1.2
5661 kPa | 1007.5 ± 1.2
5667.7 kPa | 1007.5 ± 1.2
5674.8 kPa | 1007.3 ± 1.2
5681.2 kPa | 1007.4 ± 1.2
5687.9 kPa | 1007.4 ± 1.2
5696.2 kPa | 1007.5 ± 1.2
5703 kPa | 1007.4 ± 1.2
5709.5 kPa | 1007.5 ± 1.2
5716.6 kPa | 1007.5 ± 1.2
5724.4 kPa | 1007.5 ± 1.2
